Literature values as cited in US11565004B2, “In vivo imaging of matrix metalloproteinases in lung disease” (The Trustees of Columbia University in the City of New York, priority 2016, dated 2023).

System: MMPs-1, -2, -3, -7, -9, -12, and -13

COc1ccc(S(=O)(=O)N(Cc2cccnc2)[C@@H](C(=O)NO)C(C)C)cc1 [CGS27023A]
affinities against MMPs: high affinities
